Assay results from PubChem BioAssay (NCI).
Where “and” joins values, the source holds several entries; their conditions need not be identical. Equal values may be shown once.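 Briefly, cells in 96-well plates were exposed to five compound concentrations for 48 h, and endpoints were estimated by linear interpolation. GI50 is the concentration that inhibits growth by half. TGI: total growth inhibition.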

Key:
Assay in all cases: NCI anticancer screen, dose series, 48 h
EKVX NSCLC = test system: EKVX NSCLC
HCT-116 colon = test system: HCT-116 colon
IGROV1 ovarian = test system: IGROV1 ovarian
K-562 leukemia = test system: K-562 leukemia
M14 melanoma = test system: M14 melanoma
MALME-3M melanoma = test system: MALME-3M melanoma
RPMI-8226 leukemia = test system: RPMI-8226 leukemia
SK-OV-3 ovarian = test system: SK-OV-3 ovarian
MCF7 breast = test system: MCF7 breast
NCI/ADR-RES ovarian = test system: NCI/ADR-RES ovarian

| Structure (SMILES) | TGI (EKVX NSCLC) | TGI (HCT-116 colon) | TGI (IGROV1 ovarian) | TGI (K-562 leukemia) | TGI (M14 melanoma) | TGI (MALME-3M melanoma) | TGI (RPMI-8226 leukemia) | TGI (SK-OV-3 ovarian) | GI50 (EKVX NSCLC) | GI50 (HCT-116 colon) | GI50 (IGROV1 ovarian) | GI50 (SK-OV-3 ovarian) | GI50 (K-562 leukemia) | GI50 (M14 melanoma) | GI50 (MALME-3M melanoma) | GI50 (MCF7 breast) | TGI (MCF7 breast) | GI50 (NCI/ADR-RES ovarian) | TGI (NCI/ADR-RES ovarian) | GI50 (RPMI-8226 leukemia) |
| --- | --- | --- | --- | --- | --- | --- | --- | --- | --- | --- | --- | --- | --- | --- | --- | --- | --- | --- | --- | --- |
| CC(C)(CN1C(=O)C(Cl)=C(Cl)C1=O)CN1C(=O)C(Cl)=C(Cl)C1=O | 51.5 µM | 27.9 µM | 40.4 µM | 7.1 µM | 38.2 µM | 16.7 µM | 4.96 µM | > 58.9 µM |  |  |  |  |  |  |  |  |  |  |  |  |
| COc1cc(C2c3cc4c(cc3[C@@H](NCCN(C)C)C3COC(=O)[C@H]23)OCO4)cc(OC)c1O (some centres undefined) | 5.08 µM and 11 µM | 2.18 µM and 3.79 µM | 2.39 µM and 3.57 µM |  | 1.61 µM and 2.31 µM | 1.61 µM and 2.3 µM | > 100 µM and 12 µM | 0.565 µM and 0.649 µM | 1.56 µM and 3.29 µM | 0.272 µM and 0.715 µM | 0.391 µM and 1.06 µM | 0.0393 µM and 0.103 µM |  |  |  |  |  |  |  |  |
| CC(C)(C)c1cc(C(=O)Nc2ccccc2C(=O)NCCN)cc(C(C)(C)C)c1 | 3.96 µM | 3.25 µM |  | 5.33 µM | 3.64 µM | 3.64 µM |  | 3.69 µM | 1.76 µM | 1.8 µM |  | 1.9 µM | 2.23 µM | 1.91 µM | 1.93 µM | 1.76 µM | 3.54 µM | 1.93 µM | 3.89 µM |  |
| O=C1NC(=NCc2ccccc2Cl)S/C1=C\c1ccc2ncccc2c1 |  | > 25 µM | > 25 µM | > 25 µM | > 25 µM | > 25 µM | > 25 µM | > 25 µM |  | 3.98 µM | 9.01 µM | 15.6 µM | 12.7 µM | 16.3 µM | > 20.7 µM | 9.2 µM | > 25 µM | > 25 µM | > 25 µM | 17 µM |
| N#CCn1c(=O)c(Oc2ccc(F)cc2F)cc2cnc(NC3CCOCC3)nc21 |  | > 25 µM | > 25 µM | > 25 µM | > 25 µM | > 25 µM | > 25 µM | > 25 µM |  | > 25 µM | > 25 µM | > 25 µM | > 25 µM | > 25 µM | > 22.5 µM | > 25 µM | > 25 µM | > 25 µM | > 25 µM | > 25 µM |
| Clc1nccc2c(-c3csc(-c4c[nH]c5ccc(Br)cc45)n3)c[nH]c12 | 12.4 µM | 10.5 µM | 15.4 µM | 9.44 µM | 5.62 µM |  | 39 µM | 8.27 µM | 3.11 µM | 2.35 µM | 2.51 µM | 2.78 µM | 2.73 µM | 2.22 µM |  | 2.2 µM | 11.6 µM | 2.71 µM | 10.7 µM | 4.03 µM |
| CCCCC1=CSC(c2ccccc2)=C(c2ccccc2)S1 | > 100 µM | > 100 µM | > 100 µM | > 100 µM | > 100 µM |  | > 100 µM | > 100 µM |  |  |  |  |  |  |  |  |  |  |  |  |
| COc1cc(/C=C/C(=O)c2cccc(-n3cc(-c4cc(OC)c(OC)c(OC)c4)[nH]c3=O)c2)cc(OC)c1OC | > 100 µM | 2.13 µM | 3.79 µM | > 100 µM | 4.8 µM | 3.7 µM | 0.733 µM | > 100 µM | 9.48 µM | 0.749 µM | 1.6 µM | 5.12 µM | 0.591 µM | 2.12 µM | 1.8 µM | 0.479 µM | 2.44 µM |  |  | 0.238 µM |
